Experimental data published in ChEMBL document CHEMBL1146153, “A metabolically stable tight-binding transition-state inhibitor of glyoxalase-I” (Bioorg Med Chem Lett, 2006).

Tests used:
[1] = Stability against equine kidney gamma-glutamyltranspeptidase mediated breakdown at pH 8.4 after 15 mins; format: ADME, tissue-based; details: pH 8.4, 0.25 h
Glyoxalase I = target: T1, Glyoxalase I (Saccharomyces cerevisiae S288c, UniProt P50107); assay: Inhibition of yeast glyoxalase1
T1 sequence (P50107 whole entry): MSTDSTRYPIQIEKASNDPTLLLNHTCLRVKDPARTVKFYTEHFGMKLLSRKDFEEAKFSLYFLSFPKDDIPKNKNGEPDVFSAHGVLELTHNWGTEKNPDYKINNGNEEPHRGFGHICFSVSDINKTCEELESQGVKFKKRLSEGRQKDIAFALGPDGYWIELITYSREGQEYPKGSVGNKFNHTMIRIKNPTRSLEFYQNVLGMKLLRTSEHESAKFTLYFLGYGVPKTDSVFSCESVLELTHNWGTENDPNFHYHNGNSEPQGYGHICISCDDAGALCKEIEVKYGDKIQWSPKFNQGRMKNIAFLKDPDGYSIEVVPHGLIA

[2] = Stability against equine kidney gamma-glutamyltranspeptidase mediated breakdown at pH 8.4 after 15 hrs; format: ADME; details: pH 8.4, 15 h

Activity [1]	Ki (Glyoxalase I) [nM]	Stability [2]	SMILES
Not Active			N[C@@H](CCC(=O)N[C@@H](CSCc1ccc(Br)cc1)C(=O)NCC(=O)O)C(=O)O
	2190	Stable	N[C@@H](CNC(=O)N[C@@H](CSC(=O)N(O)c1ccc(Br)cc1)C(=O)NCC(=O)O)C(=O)O
Not Active			N[C@@H](CCC(=O)N[C@@H](CSC(=O)N(O)c1ccc(Br)cc1)C(=O)NCC(=O)O)C(=O)O
